Reference: ChEMBL document CHEMBL1201862, “PubChem BioAssay data set” (2004)
Counter-ions that a name gives are not always drawn.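 Values below derive from 48-hour exposures of cells grown in 96-well plates, with endpoints linearly interpolated between the two concentrations bracketing the appropriate inhibition level. The concentration for 50% growth inhibition is given as GI50.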 Active and inactive are the calls of the source. No stated cut-off is given here; in the data, active = GI50 up to about 1.1 µM and inactive = higher.

Legend:
Experiment in all cases: NCI anticancer screen, dose series, 48 h
[1] = tested on: SF-539
[2] = tested on: ACHN
[3] = tested on: M14
[4] = tested on: OVCAR-5
[5] = tested on: UACC-257
[6] = tested on: LOX IMVI
[7] = tested on: XF498
[8] = tested on: EKVX
[9] = tested on: HL-60
[10] = tested on: SNB-75
[11] = tested on: KM-20L2
[12] = tested on: IGROV-1
[13] = tested on: K562
[14] = tested on: OVCAR-8
[15] = tested on: OVCAR-3
[16] = tested on: LXFL 529
[17] = tested on: SF-295
[18] = tested on: CAKI-1
[19] = tested on: CCRF-CEM
[20] = tested on: A498
[21] = tested on: DMS-273
[22] = tested on: NCI-H460
[23] = tested on: SK-MEL-2
[24] = tested on: NCI-H226
[25] = tested on: 786-0
[26] = tested on: RPMI-8226
[27] = tested on: SN12C
[28] = tested on: U-251
[29] = tested on: M19-MEL
[30] = tested on: SK-MEL-5
[31] = tested on: Malme-3M
[32] = tested on: SK-MEL-28
[33] = tested on: RXF 393
[34] = tested on: A549
[35] = tested on: DLD-1
[36] = tested on: MOLT-4
[37] = tested on: NCI-H23
[38] = tested on: KM12
[39] = tested on: HT-29
[40] = tested on: OVCAR-4
[41] = tested on: TK-10
[42] = tested on: DMS-114
[43] = tested on: SNB-19
[44] = tested on: NCI-H522
[45] = tested on: HOP-62
[46] = tested on: SK-OV-3
[47] = tested on: SF-268
[48] = tested on: SNB-78
[49] = tested on: COLO 205
[50] = tested on: HOP-92
[51] = tested on: UO-31
[52] = tested on: HCC 2998
[53] = tested on: SW-620
[54] = tested on: HCT-116
[55] = tested on: SR
[56] = tested on: MDA-MB-435
[57] = tested on: HOP-18

CC1=C(C(=O)Nc2c(C)cccc2C)C(c2ccccc2Cl)C(C(=O)Nc2c(C)cccc2C)=C(C)N1
GI50 [1]: > 100 µM (inactive) | GI50 [2]: > 100 µM (inactive) | GI50 [3]: > 100 µM (inactive) | GI50 [4]: > 100 µM (inactive) | GI50 [5]: > 100 µM (inactive) | GI50 [6]: > 100 µM (inactive) | GI50 [7]: > 100 µM (inactive) | GI50 [8]: > 100 µM (inactive) | GI50 [9]: > 100 µM (inactive) | GI50 [10]: 94.8 µM (inactive) | GI50 [11]: > 100 µM (inactive) | GI50 [12]: > 100 µM (inactive) | GI50 [13]: > 100 µM (inactive) | GI50 [14]: > 100 µM (inactive) | GI50 [15]: > 100 µM (inactive) | GI50 [16]: > 100 µM (inactive) | GI50 [17]: > 100 µM (inactive) | GI50 [18]: > 100 µM (inactive) | GI50 [19]: > 100 µM (inactive) | GI50 [20]: > 100 µM (inactive) | GI50 [21]: > 100 µM (inactive) | GI50 [22]: > 100 µM (inactive) | GI50 [23]: > 100 µM (inactive) | GI50 [24]: > 100 µM (inactive) | GI50 [25]: > 100 µM (inactive) | GI50 [26]: > 100 µM (inactive) | GI50 [27]: > 100 µM (inactive) | GI50 [28]: > 100 µM (inactive) | GI50 [29]: > 100 µM (inactive) | GI50 [30]: > 100 µM (inactive) | GI50 [31]: > 100 µM (inactive) | GI50 [32]: > 100 µM (inactive) | GI50 [33]: > 100 µM (inactive) | GI50 [34]: > 100 µM (inactive) | GI50 [35]: > 100 µM (inactive) | GI50 [36]: > 100 µM (inactive) | GI50 [37]: > 100 µM (inactive) | GI50 [38]: > 100 µM (inactive) | GI50 [39]: > 100 µM (inactive) | GI50 [40]: > 100 µM (inactive) | GI50 [41]: > 100 µM (inactive) | GI50 [42]: > 100 µM (inactive) | GI50 [43]: > 100 µM (inactive) | GI50 [44]: > 100 µM (inactive) | GI50 [45]: > 100 µM (inactive) | GI50 [46]: > 100 µM (inactive) | GI50 [47]: > 100 µM (inactive) | GI50 [48]: > 100 µM (inactive) | GI50 [49]: > 100 µM (inactive) | GI50 [50]: > 100 µM (inactive) | GI50 [51]: > 100 µM (inactive) | GI50 [52]: > 100 µM (inactive) | GI50 [53]: > 100 µM (inactive)

O=C1c2c(O)ccc(O)c2C(=O)c2c(NCCNCCO)ccc(NCCNCCO)c21 [MITOXANTRONE HYDROCHLORIDE]
GI50 [2]: 0.0115 µM (active) | GI50 [5]: 1.89 µM (inactive) | GI50 [7]: 0.0136 µM (active) | GI50 [9]: 0.0103 µM (active) | GI50 [11]: 0.384 µM (active) | GI50 [13]: 0.118 µM (active) | GI50 [54]: 0.0553 µM (active) | GI50 [18]: 0.00899 µM (active) | GI50 [19]: 0.00598 µM (active) | GI50 [20]: 0.0619 µM (active) | GI50 [21]: 0.0119 µM (active) | GI50 [24]: 0.0153 µM (active) | GI50 [28]: 0.0091 µM (active) | GI50 [35]: 0.491 µM (active) | GI50 [41]: 0.423 µM (active) | GI50 [55]: 0.00764 µM (active) | GI50 [56]: 0.471 µM (active) | GI50 [57]: 0.126 µM (active) | GI50 [48]: 0.204 µM (active) | GI50 [50]: 0.0177 µM (active)
